For 53 molecules, EC50, IC50 and outcome results are on record in PubChem BioAssay AID179 (DTP/NCI, 2004).

Activity calls are given as the source filed them.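 Rule for the calls: active = compounds giving half or more protection of infected cells from virus-caused growth loss, again on retest; inactive = the rest.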

This test has as its system CEM cells HIV-1 protection, formazan growth assay. The test can be described thus: NCI AIDS Antiviral Assay. The conditions noted are these: for IC50: measured here: growth of uninfected CEM cells. In a few lines:
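Soluble formazan readout of cell growth; CEM cells ± HIV-1; 5 drug concs. ≥50% protection → retest; ≥50% again = moderately active; reproducible 100% = confirmed active.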

One may read the EC50 as the concentration that produces a half-maximal response. As a reminder, the IC50 is the concentration that gives 50% inhibition. A higher IC50 goes with weaker potency. Regarding `O=c1c(-c2ccccc2)c2oc(c1-c1ccccc1)CSCc1cccc(c1)CSC2`, the EC50 is above 1.7 µM and the IC50 was above 1.7 µM.

`CC(C)COP(C)(=O)C(N)(C(F)(F)F)C(F)(F)F` (stereo unspecified): the EC50 was above 200 µM and the IC50 is above 200 µM.

Consider `CCOC(=O)N1CCN(Cc2cc(=O)n3cc(C)ccc3n2)CC1`, for which the EC50 is above 200 µM and the IC50 was above 200 µM.

Regarding `O=c1ccn(C(CO)OC(CO)CCP(=O)(O)O)c(=O)[nH]1` (stereo unspecified), the EC50 was above 200 µM and the IC50 is above 200 µM.

Turning to `N#CC(NNC(=O)Cc1ccccc1)c1c(O)ccc2ccccc12` (stereo unspecified), the EC50 is above 56.2 µM and the IC50 was determined as 3.89 µM.

As for `O=c1[nH]cnc2c1ncn2C1SC(CO)C(O)C1O` (stereo unspecified), the EC50 is above 200 µM and the 50% inhibitory concentration (IC50) amounted to 117 µM.

As for `CCOC(=O)CC(=O)C(=O)NNC1=NCCN1`, the EC50 was above 200 µM and the IC50 is above 200 µM.

On to `BrCc1ccc(CBr)c2c1-c1c(CBr)ccc3ccc(CBr)c-2c13`, for which the EC50 is above 200 µM and the IC50 is 22.9 µM.

Consider `CCOC(=O)CC(=O)CSc1c(-c2ccccc2)c(=O)n(-c2ccccc2)c(=S)n1-c1ccccc1`, for which the EC50 was above 200 µM and the IC50 was 72.4 µM.

With `CCN(CC)CCNC(=O)c1ccc(I)cc1`, the EC50 was above 200 µM and the half-maximal inhibitory concentration (IC50) is above 200 µM.

In the case of `O=C(O)CCC1(CCC(=O)O)CCCCCCCCC(CCC(=O)O)(CCC(=O)O)C(=O)C1=O`, the EC50 is above 200 µM and the IC50 was above 200 µM.

For `COc1cc(N(CCC#N)CCC#N)ccc1/C(N=Nc1ccccc1)=N/NC(=O)c1cc(Br)ccc1O`, the EC50 is above 100 µM and the IC50 came to 17.8 µM.

With `COc1cc2c(cc1OC)C(Cc1cc(Br)c(OC)c(OC)c1)=[N+](C)CC2`, the EC50 is above 447 µM and the IC50 worked out at 33.9 µM.

Turning to `Cc1cccc(C[P+](c2ccccc2)(c2ccccc2)c2ccccc2)c1`, the EC50 is above 200 µM and the IC50 was 0.631 µM.

`O=C(OCCN1CCOCC1)C1C[C@@H](O)CN1C(=O)c1ccc2c(c1)OCO2` (stereo partly specified): the EC50 is above 200 µM and the IC50 is above 200 µM.

`COc1cc2c(c(OC)c1OC)C1CCCCC1SCC2O` (stereo unspecified): the EC50 is above 398 µM and the IC50 stood at 77.6 µM.

`COc1ccc(NC(=O)CC(=O)n2nc(-c3ccccc3)c(N=Nc3ccc(C)cc3)c2-c2ccccc2)cc1`: the EC50 is above 9.77 µM and the IC50 is above 9.77 µM.

In the case of `Cc1ccc(S(=O)(=O)Sc2nnnn2C)cc1`, the EC50 is above 251 µM and the IC50 came to 53.7 µM.

As to `COC(=O)[C@H](Cc1ccccc1)NC(=O)N(CCN(CCC#N)C(=O)N[C@H](C(=O)OC)C(C)C)c1ccccc1`, the EC50 was above 200 µM and the IC50 amounted to 83.2 µM.

In the case of `CC(C)[Si]1(C(C)C)OCC2OC3(CO)C(Oc4nc(=O)ccn43)C2O[Si](C(C)C)(C(C)C)O1` (stereo unspecified), the EC50 is above 200 µM and the IC50 came out at 18.6 µM.

Consider `CCCCCCCCCCCCCCCCCCN1C(=O)c2ccccc2[Se]1=O` (stereo unspecified), for which the EC50 is above 0.813 µM and the IC50 was above 0.813 µM.

For the molecule `OCC(O)C(O)C(O)c1nc2ccccc2s1` (stereo unspecified), the EC50 was above 977 µM and the IC50 was determined as 120 µM.

Consider `O=c1cc2n(c(=O)[nH]1)C1OC(C(O)C1O)[C@@H]2CCO` (stereo partly specified), for which the result was inactive.

Take `COc1ccc2[nH]c3c(=O)[nH]ncc3c2c1`: the result was inactive.

Take `COC1=C2CC(C)CC(OC)C(O)C(C)/C=C(\C)C(OC(N)=O)C(OC)/C=C\C=C(/C)C(=O)NC(=C(/C=N/N3CCCCC3)C1=O)C2=O` (stereo unspecified): the EC50 is above 200 µM and the IC50 is 3.89 µM.

For the molecule `CC1(C)OC(=O)C(=Cc2ccc(F)cc2)C(=O)O1`, the EC50 was above 525 µM and the IC50 was 170 µM.

Turning to `CCC1=C(c2ccc(OC)cc2)CCC2(CCNC2)C1C` (stereo unspecified), the EC50 is above 513 µM and the half-maximal inhibitory concentration (IC50) amounted to 10.5 µM.

Consider `CN1C(=O)c2cccc3c([N+](=O)[O-])ccc(c23)C1=O`, for which the EC50 was above 20.4 µM and the half-maximal inhibitory concentration (IC50) turned out to be 7.76 µM.

With `C[C@H](CCC1=NCCN1)[C@H]1CC[C@H]2[C@@H]3[C@H](O)C[C@@H]4C[C@H](O)CC[C@]4(C)[C@H]3CC[C@]12C`, the EC50 is above 200 µM and the IC50 came out at 24 µM.

For `COc1ccc2c(c1)CCCN1CCc3cc(OC)c(OC)cc3C21` (stereo unspecified), the EC50 is above 200 µM and the half-maximal inhibitory concentration (IC50) is above 200 µM.

In the case of `CC(C)c1cc(C(C)C)c(B(c2ccccc2)c2ccccc2)c(C(C)C)c1Br`, the EC50 was above 200 µM and the IC50 is above 200 µM.

With `CCOC(=O)c1c(-c2ccc(OC)cc2)c(C#N)c(=S)n(C2OC(CO)C(O)C(O)C2O)c1-c1ccccc1` (stereo unspecified), the EC50 is above 200 µM and the IC50 came to 34.7 µM.

Regarding `O=C([O-])c1ccccn1.O=C([O-])c1ccccn1.[Cu+2]`, the EC50 is above 200 µM and the IC50 is 7.76 µM.

As for `CCOC(=O)C(C)(C(=O)OCC)/C(Cl)=C\Cl`, the EC50 is above 200 µM and the IC50 was above 200 µM.

`CC1(C(=O)Nc2ccccc2)CC2(C)CC(C)(C1)C(O)NC2=O` (stereo unspecified): the result was inactive.

Take `O=C(NCCSSCCNC(=O)/C(Cc1ccc(O)c(Br)c1)=N/O)/C(Cc1ccc(O)c(Br)c1)=N/O`: the result was inactive.

Turning to `Nc1cc(Cl)c(S(=O)(=O)O)cc1Cl`, the EC50 was above 200 µM and the IC50 was above 200 µM.

Take `Cc1cccc2c1C(=O)C(C1OC(=O)c3ccccc31)C2` (stereo unspecified): the EC50 was above 100 µM and the 50% inhibitory concentration (IC50) is above 100 µM.

Regarding `Fc1cccc(F)c1C1SCc2nc3cc(Cl)ccc3n21` (stereo unspecified), the EC50 is above 200 µM and the 50% inhibitory concentration (IC50) was found to be 182 µM.

With `O=C1c2ccccc2-c2nccc3c2c1nc1ccccc13`, the EC50 was above 200 µM and the IC50 was determined as 8.32 µM.

Consider `Cc1ccc2c(c1)nc(N)n[n+]2[O-]`, for which the EC50 is above 100 µM and the IC50 is above 100 µM.

`COC(=O)c1cc(C(c2cc(C(=O)OC)c(O)c(Br)c2C)C(Cl)Cl)c(C)c(Br)c1O`: the EC50 is above 200 µM and the IC50 came to 66.1 µM.

Regarding `C=Cc1cc[n+](CC(=O)c2ccc(-c3ccccc3)cc2)cc1`, the EC50 was above 200 µM and the IC50 came to 45.7 µM.

Consider `CC1=NN(c2nc(N)nc(C/C(N)=N/O)n2)C(C)(C)C1`, for which the EC50 is above 200 µM and the IC50 is above 200 µM.

Turning to `NCCSS(=O)(=O)CCN`, the EC50 was above 363 µM.

As for `Cc1c(O)c2ccc(Cl)cc2n(C)c1=O`, the EC50 is above 200 µM and the IC50 is above 200 µM.

Regarding `Cc1ccc([P+](Cc2ccc([N+](=O)[O-])cc2)(c2ccc(C)cc2)c2ccc(C)cc2)cc1`, the EC50 is above 200 µM and the IC50 came out at 3.63 µM.

Turning to `O=C(CNC(=O)c1ccc(Cl)cc1)NO`, the EC50 was above 200 µM and the IC50 was above 200 µM.

Regarding `NCCSSc1ccccc1C(=O)O`, the EC50 was above 200 µM and the IC50 is above 200 µM.

`Nc1ccc(S(=O)(=O)NC(CSSCC(NS(=O)(=O)c2ccc(N)cc2)C(=O)O)C(=O)O)cc1` (stereo unspecified): the EC50 is above 200 µM and the concentration for half-maximal inhibition (IC50) is above 200 µM.

Consider `CCOC(=O)NNC(=O)NCCCCNC(=O)NNC(=O)OCC`, for which the EC50 is above 200 µM and the IC50 is above 200 µM.

With `Clc1nc(Cl)nc(Nc2cccc3ccccc23)n1`, the EC50 is above 200 µM and the IC50 was determined as 107 µM.

On to `COc1ccc2c(C)cc(N/N=C/c3sccc3C)nc2c1`, for which the EC50 is above 200 µM and the IC50 was determined as 8.32 µM.
